System: HT-29 cells
Experiment: HT29 cells 0FBS assay in vitro: TNF-α/SMAC mimetic/zVAD-FMK induced necroptosis, CellTiter-Glo cell viability (RIP1 inhibitory activity)
Format: cell-based
Settings: Homo sapiens, FBS free medium, TNF-α (10 ng/ml) + SMAC mimetic (6 uM) + zVAD-FMK (10 μM), 20 hours, geometric mean EC50
From the text: Protocol for HT29 Cells 0FBS Assay In Vitro
• Cell line: HT-29 (ATCC® HTB-38™) • Culture medium: McCOY's 5A, Gibco, Cat No. 16600-082 • FBS, Gibco, Cat No. 10099-141C • Trypsin: Gibco, Cat No. 25200-056 • DMSO: Sigma, Cat No. 67-68-5, 1L • Assay plate: Corning #3903 • Compound dilution plate: Corning #3357 • Inducers: TNFα, GenScript, Cat No. Z01001-50, • SmacM, Cat. No., HY-15989, MedChemExpress (MCE) • Z_VAD FMK, TargetMol, T6013 • Cell Titer-Glo® Luminescent Cell Viability Assay Kit: Promega, Cat No. G7573 • EnVision: PerkinElmer, 2105-0010
2. Cell Seeding of HT-29 Cells
1) HT-29 cells were checked every day to make sure they are healthy and growing as expected. They were split sub-culturing when were approximately 80% confluent.
2) First pre-warm the culture medium of McCOY's 5A medium (Gibco, Cat No. 16600-082) with 10% FBS (Gibco, Cat No. 10099-141C) in 37° C. water bath for at least 30 min.
3) Growing cells to desired level of confluency 80% in a T75 flask, aspirate the medium, and wash with warm PBS two times.
4) Add 2-3 ml fresh warm trypsin (Gibco, Cat No. 25200-056) solution. Transfer the flask to a 37° C. incubator.
5) After 5 minutes, tap the side of the flask, and examine the flask under a microscope for lifting. If necessary, return the cells to the incubator for an additional 5-10 minutes, with occasional tapping, until lifting is complete.
6) Quickly neutralize the trypsin reaction by adding 6-9 ml cell culture medium, then transfer the cells to sterile 15 ml conical tubes. Pellet the cells by centrifugation at 300×g for 7 minutes, then decant the supernatant.
7) Resuspend the cells in fresh cell culture medium. Do cell counting with hemocytometer.
8) Seed 100 μl of 5,000 cells into each well of the sterile 96-well cell culture plate (Corning 3903) and culture overnight at 37° C. with 5% CO2.
3. Compounds Titration and Treatment of HT-29 Cells
1) All batches of compounds (CPDs0 (e.g., compound 1-169) were dissolved in DMSO (Dimethyl sulfoxide) as 20 mM stock solution.
2) Take 3 ul 20 mM stock solution of CPDs to […] DMSO and mix well, continue the titration ratio of 1:3 (20 ul CPDs+40 ul DMSO), e.g., to give solutions of CPDS at 6.6 mM, 2.2 mM, etc., till the 10 points end.
3) Take out assay plates with HT-29 cells from incubator, remove all culture medium then wash 1 time with 1×PBS, and change fresh McCOY's 5A medium of FBS free with a cocktail of TNF-α (10 ng/ml), the SMAC mimetic (6 uM) and zVAD-FMK (10 μM) to stimulate the HT-29 cells to increase pRIPK1 levels and necroptosis.
4) Add 0.5 μL of the diluted compound to the corresponding 96-well assay plates.
5) Incubate the assay plates for 20 hours at 37° C. with 5% CO2.
4. Performing Cell Viability Detection of HT-29 Cells after Treated with Compounds
1) The CellTiter-Glo® Luminescent Cell Viability Assay was employed to detect the ATP levels of viable HT-29 cells.
2) Equilibrate the CellTiter-Glo® buffer and the lyophilized substrate to room temperature prior to use.
3) Resuspend the CellTiter-Glo® substrate with CellTiter-Glo® buffer, mix by gently vortexing to obtain a homogeneous solution.
4) Pipette 20 μl the enzyme/substrate mixture by multi-channel pipette into the 96-well assay plates from step 5) under the Compounds titration and treatment stage.
5) Place the plates on an orbital shaker and mix the contents for 3 minutes to induce cell lysis.
6) Then allow the plates to incubate at room temperature for 10 minutes to stabilize luminescent signal.
7) Read and record luminescence signal with EnVision.
8) The geometric mean EC50 of the compounds were calculated from 10 points response dose with duplicate. In Table 2, activity is provided as follows: +++=0.1 nM≤EC50<100 nM; ++=100 nM≤EC5 1000 nM; […].

SMILES	EC50
Cc1ncc(C2CC=NN2C(=O)N2CC(Oc3nc(-c4c(C)cnn4C)ccc3F)C2)s1 (centres unmarked) [Compound 106, (3-((6-(1,4-dimethyl-1H-pyrazol-5-yl)-3-fluoropyridin-2-yl)oxy)azetidin-1-yl)(5-(2-methylthiazol-5-yl)-4,5-dihydro-1H-pyrazol-1-yl)methanone]	0.0001 to 0.1 µM
Cc1cnn(C)c1-c1cc(OC2CN(C(=O)N3N=CCC3c3nc(C)c(C)s3)C2)c(F)cn1 (centres unmarked) [Compound 144, (3-((2-(1,4-dimethyl-1H-pyrazol-5-yl)-5-fluoropyridin-4-yl)oxy)azetidin-1-yl)(5-(4,5-dimethylthiazol-2-yl)-4,5-dihydro-1H-pyrazol-1-yl)methanone]	0.1 to 1 µM
Cc1cnc(C2CC=NN2C(=O)N2CC(Oc3nc(-c4ccnn4C)c(F)cc3F)C2)s1 (centres unmarked) [Compound 139, (3-((3,5-difluoro-6-(1-methyl-1H-pyrazol-5-yl)pyridin-2-yl)oxy)azetidin-1-yl)(5-(5-methylthiazol-2-yl)-4,5-dihydro-1H-pyrazol-1-yl)methanone]	0.0001 to 0.1 µM
Cc1nc([C@H]2CC=NN2C(=O)N2CC(Oc3cc(-c4c(C)cnn4C)ncc3F)C2)cs1 [Compound 121, (R)-(3-((2-(1,4-dimethyl-1H-pyrazol-5-yl)-5-fluoropyridin-4-yl)oxy)azetidin-1-yl)(5-(2-methylthiazol-4-yl)-4,5-dihydro-1H-pyrazol-1-yl)methanone]	1 to 10 µM
Cc1nn(-c2cc(OC3CN(C(=O)N4N=CC[C@H]4c4ccccc4)C3)c(F)cn2)c(C)c1C(=O)NCCO [Compound 74, (S)-1-(5-fluoro-4-((1-(5-phenyl-4,5-dihydro-1H-pyrazole-1-carbonyl)azetidin-3-yl)oxy)pyridin-2-yl)-N-(2-hydroxyethyl)-3,5-dimethyl-1H-pyrazole-4-carboxamide]	0.0001 to 0.1 µM
Cc1c(C#N)nn(C)c1-c1ccc(F)c(OC2CN(C(=O)N3N=CC[C@H]3c3cc(F)cc(C#N)c3)C2)n1 [Compound 56, (S)-5-(6-((1-(5-(3-cyano-5-fluorophenyl)-4,5-dihydro-1H-pyrazole-1-carbonyl)azetidin-3-yl)oxy)-5-fluoropyridin-2-yl)-1,4-dimethyl-1H-pyrazole-3-carbonitrile]	0.0001 to 0.1 µM
Cc1nn(-c2cc(OC3CN(C(=O)C4=NNCC4c4cc(F)cc(F)c4)C3)c(F)cn2)c(C)c1C(N)=O (centres unmarked) [Compound 162, 1-(4-((1-(4-(3,5-difluorophenyl)-4,5-dihydro-1H-pyrazole-3-carbonyl)azetidin-3-yl)oxy)-5-fluoropyridin-2-yl)-3,5-dimethyl-1H-pyrazole-4-carb oxamide]	0.0001 to 0.1 µM
Cc1cnn(C)c1-c1cc(OC2CN(C(=O)N3N=CCC3c3ccn(C)c3)C2)c(F)cn1 (centres unmarked) [Compound 145, (3-((2-(1,4-dimethyl-1H-pyrazol-5-yl)-5-fluoropyridin-4-yl)oxy)azetidin-1-yl)(5-(1-methyl-1H-pyrrol-3-yl)-4,5-dihydro-1H-pyrazol-1-yl)methanone]	0.0001 to 0.1 µM
Cn1nc(N)cc1-c1cc(OC2CN(C(=O)N3N=CC[C@H]3c3cc(F)cc(C#N)c3)C2)c(F)cn1 [Compound 35, (S)-3-(1-(3-((2-(3-amino-1-methyl-1H-pyrazol-5-yl)-5-fluoropyridin-4-yl)oxy)azetidine-1-carbonyl)-4,5-dihydro-1H-pyrazol-5-yl)-5-fluorobenzonitrile]	0.0001 to 0.1 µM
Cc1c(N)nn(C)c1-c1cc(OC2CN(C(=O)N3N=CC[C@H]3c3cncc(F)c3)C2)c(F)cn1 [Compound 61, (S)-(3-((2-(3-amino-1,4-dimethyl-1H-pyrazol-5-yl)-5-fluoropyridin-4-yl)oxy)azetidin-1-yl)(5-(5-fluoropyridin-3-yl)-4,5-dihydro-1H-pyrazol-1-yl)methanone]	0.0001 to 0.1 µM
CCn1nccc1-c1cc(OC2CN(C(=O)N3N=CC[C@H]3c3cncc(F)c3)C2)c(F)cn1 [Compound 28, (S)-(3-((2-(1-ethyl-1H-pyrazol-5-yl)-5-fluoropyridin-4-yl)oxy)azetidin-1-yl)(5-(5-fluoropyridin-3-yl)-4,5-dihydro-1H-pyrazol-1-yl)methanone]	0.0001 to 0.1 µM
Cc1c(C#N)nn(C)c1-c1cc(OC2CN(C(=O)N3N=CC[C@H]3c3cc(F)cc(C#N)c3)C2)c(F)cn1 [Compound 51, (S)-5-(4-((1-(5-(3-cyano-5-fluorophenyl)-4,5-dihydro-1H-pyrazole-1-carbonyl)azetidin-3-yl)oxy)-5-fluoropyridin-2-yl)-1,4-dimethyl-1H-pyrazole-3-carbonitrile]	0.0001 to 0.1 µM
Cc1nc(C2CC=NN2C(=O)N2CC(Oc3cc(-c4c(C)cnn4C)c(F)cc3F)C2)cs1 (centres unmarked) [Compound 131, (3-(5-(1,4-dimethyl-1H-pyrazol-5-yl)-2,4-difluorophenoxy)azetidin-1-yl)(5-(2-methylthiazol-4-yl)-4,5-dihydro-1H-pyrazol-1-yl)methanone]	0.0001 to 0.1 µM
CCS(=O)(=O)c1c(C)nn(-c2cc(OC3CN(C(=O)N4N=CC[C@H]4c4cc(F)cc(C#N)c4)C3)c(F)cn2)c1C [Compound 48, (S)-3-(1-(3-((2-(4-(ethylsulfonyl)-3,5-dimethyl-1H-pyrazol-1-yl)-5-fluoropyridin-4-yl)oxy)azetidine-1-carbonyl)-4,5-dihydro-1H-pyrazol-5-yl)-5-fluorobenzonitrile]	0.0001 to 0.1 µM
Cn1nccc1-c1cnc(OC2CN(C(=O)N3N=CC[C@H]3c3cc(F)cc(F)c3)C2)s1 [Compound 153, (S)-(5-(3,5-difluorophenyl)-4,5-dihydro-1H-pyrazol-1-yl)(3-((5-(1-methyl-1H-pyrazol-5-yl)thiazol-2-yl)oxy)azetidin-1-yl)methanone]	0.0001 to 0.1 µM
Cc1cnc(C2CC=NN2C(=O)N2CC(Oc3cc(-c4c(C)cnn4C)ncc3F)C2)s1 (centres unmarked) [Compound 94, (3-((2-(1,4-dimethyl-1H-pyrazol-5-yl)-5-fluoropyridin-4-yl)oxy)azetidin-1-yl)(5-(5-methylthiazol-2-yl)-4,5-dihydro-1H-pyrazol-1-yl)methanone]	0.0001 to 0.1 µM
Cc1cnc(C2CC=NN2C(=O)N2CC(Oc3nc(-c4c(C)cnn4C)c(F)cc3F)C2)s1 (centres unmarked) [Compound 129, (3-((6-(1,4-dimethyl-1H-pyrazol-5-yl)-3,5-difluoropyridin-2-yl)oxy)azetidin-1-yl)(5-(5-methylthiazol-2-yl)-4,5-dihydro-1H-pyrazol-1-yl)methanone]	0.0001 to 0.1 µM
Cc1cncc(C2CC=NN2C(=O)N2CC(Oc3cc(-c4c(C)cnn4C)ncc3F)C2)c1 (centres unmarked) [Compound 101, (3-((2-(1,4-dimethyl-1H-pyrazol-5-yl)-5-fluoropyridin-4-yl)oxy)azetidin-1-yl)(5-(5-methylpyridin-3-yl)-4,5-dihydro-1H-pyrazol-1-yl)methanone]	0.0001 to 0.1 µM
Cc1nc(C2CC=NN2C(=O)N2CC(Oc3cc(-c4ccnn4C)c(F)cc3F)C2)cs1 (centres unmarked) [Compound 132, (3-(2,4-difluoro-5-(1-methyl-1H-pyrazol-5-yl)phenoxy)azetidin-1-yl)(5-(2-methylthiazol-4-yl)-4,5-dihydro-1H-pyrazol-1-yl)methanone]	0.0001 to 0.1 µM
Cc1cc(F)cc([C@@H]2CC=NN2C(=O)N2CC(Oc3cc(-n4nc(C)c(C(N)=O)c4C)ncc3F)C2)c1 [Compound 135, (S)-1-(5-fluoro-4-((1-(5-(3-fluoro-5-methylphenyl)-4,5-dihydro-1H-pyrazole-1-carbonyl)azetidin-3-yl)oxy)pyridin-2-yl)-3,5-dimethyl-1H-pyrazole-4-carboxamide]	0.0001 to 0.1 µM

From US20240294508A1, “RIP1 MODULATORS INCLUDING AZETIDINE CYCLIC UREAS, PREPARATIONS, AND USES THEREOF” (SIRONAX LTD., priority 2021, published 2024)
